SMILES strings stand for the structures. Where a name gives a salt, the structure may show the parent alone. The source made the active and inactive calls. The rule behind the calls is not given here. Bounds are passed on as bounds.

Series [1] is described as follows: Antitumor activity against mouse orthotopic 4T1-Luc cells implanted in female BALB/c mouse assessed as tumor growth inhibition at 1.16 mg/kg, iv administered via tail vein every 2 days for 9 times for 17 days and measured every 2 days relative to control. The class given is functional. The settings on record: 408 h, time 17 day, read-out: TGI.
A short description of series [2]: Toxicity in female BALB/c mouse implanted with mouse orthotopic 4T1-Luc cells assessed as reduction in body weight at 1.16 mg/kg, iv administered via tail vein every 2 days for 9 times for 17 days and measured every 2 days. The class given is organism-based. The settings on record: in vivo, 408 h, time 17 day.
Series [3] can be described thus: Toxicity in female BALB/c mouse implanted with mouse orthotopic 4T1-Luc cells assessed as reduction in kidney weight at 10 mg/kg, iv administered via tail vein every 2 days for 9 times for 17 days. It is filed as organism-based. The settings on record: in vivo, 408 h, time 17 day.
Series [4] can be described thus: Cytotoxicity against human MCF-10A cells assessed as inhibition of cell growth incubated for 48 hrs by MTT assay. It is filed as toxicity, cell-based.
Series [5] can be described thus: Cmax in male Sprague-Dawley rat at 3.5 mg/kg, iv by LC-MS/MS analysis. It is filed as ADME, organism-based. The settings on record: in vivo.
Series [6] concerns the target Protein-arginine deiminase type-4 (Homo sapiens, UniProt Q9UM07). Kind of series: Inhibition of PAD4 (unknown origin) using Nalpha-benzoyl-L-arginine ethyl ester as substrate preincubated for 60 mins followed by substrate addition and measured after 90 mins by colorimetric analysis.
A further series relates to 4T1. In words: Antiproliferative activity against mouse 4T1 cells assessed as inhibition of cell growth incubated for 48 hrs by MTT assay. It is filed as functional, cell-based. The settings on record: 4T1, 48 h.
In series [7] the target is Protein-arginine deiminase type-2 (Homo sapiens, UniProt Q9Y2J8). Kind of series: Inhibition of PAD2 (unknown origin) using Nalpha-benzoyl-L-arginine ethyl ester as substrate preincubated for 60 mins followed by substrate addition and measured after 90 mins by colorimetric analysis.
Series [8] can be described thus: Toxicity in female BALB/c mouse implanted with mouse orthotopic 4T1-Luc cells assessed as reduction in liver weight at 10 mg/kg, iv administered via tail vein every 2 days for 9 times for 17 days. The class given is organism-based. The settings on record: in vivo, 408 h, time 17 day.
Series [9] in a line: Toxicity in female BALB/c mouse implanted with mouse orthotopic 4T1-Luc cells assessed as reduction in body weight at 10 mg/kg, iv administered via tail vein every 2 days for 9 times for 17 days and measured every 2 days. It is filed as organism-based. The settings on record: in vivo, 408 h, time 17 day.
Series [10] in a line: AUC (0 to infinity) in male Sprague-Dawley rat at 3.5 mg/kg, iv by LC-MS/MS analysis. The class given is ADME, organism-based. The settings on record: in vivo.
For the next series, the system named is Neutrophil. Kind of series: In vivo inhibition of PAD4 in female BALB/c mouse implanted with mouse orthotopic 4T1-Luc cells assessed as inhibition of neutrophil extracellular traps formation in tumor at 10 mg/kg, iv administered via tail vein every 2 days for 9 times for 17 days by immunohistochemical staining based analysis. The settings on record: time 17.0 day. It is filed as functional, organism-based.

For series [11], the target named is Protein-arginine deiminase type-4 (Mus musculus) (UniProt Q9Z183). Kind of series: Inhibition of PAD4 in BALB/c mouse bone marrow neutrophils assessed as reduction in histone H3 citrullination at 2 uM preincubated for 2 hrs followed by calcium ionophore A23187 addition and measured after 2 hrs by Hoechst 33342/Ly6G staining based laser confocal microscopic analysis. The settings on record: Neutrophil, time 4.0 hrs.

The nature of series [12]: AUC (0 to t) in male Sprague-Dawley rat at 3.5 mg/kg, iv by LC-MS/MS analysis. The settings on record: in vivo. It is filed as ADME, organism-based.
Series [13] addresses Protein-arginine deiminase type-4 (Mus musculus) (UniProt Q9Z183). Kind of series: Inhibition of PAD4 in BALB/c mouse bone marrow neutrophils assessed as reduction in neutrophil extracellular traps formation at 2 uM preincubated for 2 hrs followed by calcium ionophore A23187 addition and measured after 2 hrs by Hoechst 33342/Ly6G staining based laser confocal microscopic analysis. The class given is tissue-based. The settings on record: time 4.0 hrs.

The nature of series [14]: Antitumor activity against mouse orthotopic 4T1-Luc cells implanted in female BALB/c mouse assessed as tumor growth inhibition at 10 mg/kg, iv administered via tail vein every 2 days for 9 times for 17 days and measured every 2 days relative to control. It is filed as functional. The settings on record: 408 h, time 17 day, read-out: TGI.
Series [15] in a line: Terminal half life in male Sprague-Dawley rat at 3.5 mg/kg, iv by LC-MS/MS analysis. The class given is ADME, organism-based. The settings on record: in vivo.
The subject of the next series is MDA-MB-468. Kind of series: Antiproliferative activity against human MDA-MB-468 cells assessed as inhibition of cell growth incubated for 48 hrs by MTT assay. It is filed as functional, cell-based. The settings on record: MDA-MB-468, 48 h.
A further series deals with Mus musculus. In words: In vivo inhibition of PAD4 in female BALB/c mouse implanted with mouse orthotopic 4T1-Luc cells assessed as inhibition of histone H3 citrullination in tumor at 10 mg/kg, iv administered via tail vein every 2 days for 9 times for 17 days by immunohistochemical staining based analysis. It is filed as functional, organism-based. The settings on record: time 17.0 day.

Series [16] can be described thus: Tmax in male Sprague-Dawley rat at 3.5 mg/kg, iv by LC-MS/MS analysis. The class given is ADME, organism-based. The settings on record: in vivo.
The target of series [17] is T1, Protein-arginine deiminase type-3 (Homo sapiens) (UniProt Q9ULW8).
T1 sequence (whole entry): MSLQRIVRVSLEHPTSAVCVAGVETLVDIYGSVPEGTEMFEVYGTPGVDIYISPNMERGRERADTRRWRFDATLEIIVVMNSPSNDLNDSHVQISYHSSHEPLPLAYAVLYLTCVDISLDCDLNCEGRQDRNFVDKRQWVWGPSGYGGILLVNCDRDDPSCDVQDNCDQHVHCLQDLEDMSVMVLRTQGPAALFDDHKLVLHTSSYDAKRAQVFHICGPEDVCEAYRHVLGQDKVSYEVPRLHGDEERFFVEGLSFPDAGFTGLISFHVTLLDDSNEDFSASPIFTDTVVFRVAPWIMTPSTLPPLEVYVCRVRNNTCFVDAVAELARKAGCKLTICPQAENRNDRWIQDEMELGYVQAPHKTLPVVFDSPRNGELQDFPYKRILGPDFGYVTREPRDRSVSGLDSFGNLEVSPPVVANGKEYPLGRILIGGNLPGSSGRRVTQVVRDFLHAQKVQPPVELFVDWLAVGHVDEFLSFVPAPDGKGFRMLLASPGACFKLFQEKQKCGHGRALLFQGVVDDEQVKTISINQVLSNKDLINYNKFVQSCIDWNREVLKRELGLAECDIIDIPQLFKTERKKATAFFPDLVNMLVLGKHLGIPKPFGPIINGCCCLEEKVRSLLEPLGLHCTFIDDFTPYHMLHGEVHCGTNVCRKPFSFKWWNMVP
In words: Inhibition of 6His-tagged recombinant human PAD3 expressed in Escherichia coli BL21-DE3 pLysS cells using N-benzoylated arginine ethyl ester hydrochloride as substrate assessed as ratio of Kinact/Ki preincubated for 30 mins followed by substrate addition and measured after 15 mins by […] assay. The settings on record: time 45.0 min.

Protein-arginine deiminase type-4, sequence (Q9UM07 whole entry): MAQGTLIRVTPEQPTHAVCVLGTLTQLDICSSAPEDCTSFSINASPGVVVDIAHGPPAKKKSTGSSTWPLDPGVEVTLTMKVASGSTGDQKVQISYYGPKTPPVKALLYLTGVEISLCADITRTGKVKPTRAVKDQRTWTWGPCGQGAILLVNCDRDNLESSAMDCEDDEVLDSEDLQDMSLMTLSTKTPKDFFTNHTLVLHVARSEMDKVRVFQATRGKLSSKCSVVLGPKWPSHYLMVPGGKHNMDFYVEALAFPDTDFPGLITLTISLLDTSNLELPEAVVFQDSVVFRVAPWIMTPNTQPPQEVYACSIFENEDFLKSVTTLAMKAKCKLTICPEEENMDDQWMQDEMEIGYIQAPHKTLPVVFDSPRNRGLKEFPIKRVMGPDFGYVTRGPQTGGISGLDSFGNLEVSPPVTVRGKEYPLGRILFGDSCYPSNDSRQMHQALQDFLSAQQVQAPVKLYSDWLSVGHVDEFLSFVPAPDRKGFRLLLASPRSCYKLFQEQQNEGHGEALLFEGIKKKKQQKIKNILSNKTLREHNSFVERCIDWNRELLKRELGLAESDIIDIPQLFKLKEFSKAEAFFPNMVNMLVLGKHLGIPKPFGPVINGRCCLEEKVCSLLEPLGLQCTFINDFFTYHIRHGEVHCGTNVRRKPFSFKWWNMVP
Protein-arginine deiminase type-2, sequence (Q9Y2J8 whole entry): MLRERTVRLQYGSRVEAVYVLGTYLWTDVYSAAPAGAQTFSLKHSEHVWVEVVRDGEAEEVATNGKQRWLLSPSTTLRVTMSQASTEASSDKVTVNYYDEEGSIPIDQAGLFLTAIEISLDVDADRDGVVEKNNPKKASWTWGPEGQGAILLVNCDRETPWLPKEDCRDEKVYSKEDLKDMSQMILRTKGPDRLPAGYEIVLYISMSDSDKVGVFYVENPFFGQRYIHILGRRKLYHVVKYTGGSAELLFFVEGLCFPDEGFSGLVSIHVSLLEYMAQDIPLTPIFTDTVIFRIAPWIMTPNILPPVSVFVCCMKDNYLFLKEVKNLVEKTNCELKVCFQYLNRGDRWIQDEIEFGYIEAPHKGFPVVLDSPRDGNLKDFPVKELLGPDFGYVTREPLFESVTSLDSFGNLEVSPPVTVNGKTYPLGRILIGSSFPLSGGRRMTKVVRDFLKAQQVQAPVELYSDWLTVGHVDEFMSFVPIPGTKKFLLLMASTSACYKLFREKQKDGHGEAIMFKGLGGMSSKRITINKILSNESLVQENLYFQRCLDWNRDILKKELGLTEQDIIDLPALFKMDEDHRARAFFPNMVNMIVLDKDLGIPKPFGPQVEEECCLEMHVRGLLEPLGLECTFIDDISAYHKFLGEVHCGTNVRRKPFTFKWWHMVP
Protein-arginine deiminase type-4 (Mus musculus), sequence (Q9Z183 whole entry): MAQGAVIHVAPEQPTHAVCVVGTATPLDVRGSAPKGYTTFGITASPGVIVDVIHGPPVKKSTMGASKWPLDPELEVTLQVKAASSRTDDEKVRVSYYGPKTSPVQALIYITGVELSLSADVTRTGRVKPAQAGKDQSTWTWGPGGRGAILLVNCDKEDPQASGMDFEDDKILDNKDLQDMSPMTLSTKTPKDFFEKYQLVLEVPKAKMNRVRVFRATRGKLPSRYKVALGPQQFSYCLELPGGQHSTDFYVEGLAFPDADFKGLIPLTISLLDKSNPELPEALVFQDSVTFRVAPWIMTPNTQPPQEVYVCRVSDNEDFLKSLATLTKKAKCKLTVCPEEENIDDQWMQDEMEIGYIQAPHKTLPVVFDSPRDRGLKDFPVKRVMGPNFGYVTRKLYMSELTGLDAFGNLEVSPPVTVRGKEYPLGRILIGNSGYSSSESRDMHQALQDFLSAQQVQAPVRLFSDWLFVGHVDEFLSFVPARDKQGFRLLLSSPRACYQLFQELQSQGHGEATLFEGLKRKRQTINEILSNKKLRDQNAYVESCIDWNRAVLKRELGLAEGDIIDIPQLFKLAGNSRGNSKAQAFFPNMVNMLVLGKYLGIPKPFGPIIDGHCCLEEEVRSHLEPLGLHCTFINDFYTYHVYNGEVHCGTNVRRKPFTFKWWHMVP

For `COc1cccc2c1C(=O)c1c(O)c3c(c(O)c1C2=O)C[C@@](O)(C(=O)CO)C[C@@H]3O[C@H]1C[C@H](N)[C@H](O)[C@H](C)O1` [DOXORUBICIN HYDROCHLORIDE], the inhibition in vivo at 1.16 mg/kg in [1] was determined as 54.6%. Moreover, in series [2], the Activity result is given as “Non-Toxic”.
In the case of `CN(C)c1ccc2cc(C(=O)N[C@@H](CCCNC(=N)CCl)C(=O)NCc3ccccc3)ccc2c1`, the Activity result is “Toxic” in series [3], “Toxic” in series [8] and “Non-Toxic” in series [9]. In series [4], the IC50 at 48 h was found to be 4.3 µM. The compound further yielded a Cmax in [5] of 251.2 ng/mL. Further, the IC50 in series [6] came to 3.54 µM; with 4T1, 7.34 µM; in series [7], 5.28 µM; in the series on MDA-MB-468, 5.16 µM. The same compound came in with an AUC in series [10] of 17214.17 ng·h/mL. The inhibition result (in the series with Neutrophil; in series [11]; in series [13]; with Mus musculus) was “Active” in each case. In [12], the AUC(0-t) stood at 14.9 ng·h/mL. Also, in series [14], the inhibition in vivo at 10 mg/kg came out at 36.2%. The “beta t1/2” value in [15] was found to be 7.8 min. Also, the Tmax in [16] was 4.8 min.
With `N#Cc1ccc(-c2nc(C(=O)N[C@@H](CCCNC(=N)CCl)C(=O)NCc3ccccc3)cc3c2[nH]c2ccccc23)cc1`, the IC50 at 48 h in [4] worked out at 11.1 µM. The IC50 in [6] came out at 1.61 µM; with 4T1, 18.3 µM; in [7], 3 µM; with MDA-MB-468 it was 4.36 µM.
The matching figures for `COc1ccc(-c2nc(C(=O)N[C@@H](CCCNC(=N)CCl)C(=O)NCc3ccccc3)cc3c2[nH]c2ccccc23)cc1OC`: 11.1 µM, 1.52 µM, 11.4 µM, 4.59 µM and 5.93 µM.
In the case of `N=C(CCl)NCCC[C@H](NC(=O)c1cc2c([nH]c3ccccc32)c(-c2ccc(O)cc2)n1)C(=O)NCc1ccccc1`, the IC50 at 48 h in [4] worked out at 51.8 µM. Further, the IC50 in series [6] was 1.08 µM; in the series with 4T1 it was 22.9 µM; in series [7], 2.26 µM; in the series with MDA-MB-468 it was 30.5 µM.
The matching figures for `N=C(CCl)NCCC[C@H](NC(=O)[C@@H]1Cc2ccccc2CN1)C(=O)NCc1ccccc1`: greater than 100 µM, 6.46 µM, 74 µM, 11.6 µM and greater than 100 µM.
The matching figures for `CCCCCc1nc(C(=O)N[C@@H](CCCNC(=N)CCl)C(=O)NCc2ccccc2)cc2c1[nH]c1ccccc12`: 8.01 µM, 1.75 µM, 8.07 µM, 3.64 µM and 7.45 µM.
The matching figures for `N=C(CCl)NCCC[C@H](NC(=O)c1ccc2nccnc2c1)C(=O)NCc1ccccc1`: 54 µM, 2.64 µM, 46.2 µM, 2.28 µM and 69.5 µM.
Turning to `COc1cccc(OC)c1-c1nc(C(=O)N[C@@H](CCCNC(=N)CCl)C(=O)NCc2ccccc2)cc2c1[nH]c1ccccc12`, the IC50 at 48 h in [4] was determined as 14.7 µM. The IC50 stood at 1.89 µM in [6], 13.9 µM in the series with 4T1, 1.51 µM in series [7] and 5.87 µM in the series on MDA-MB-468.
Take `N=C(CCl)NCCCC1NC(=O)N(Cc2cccc(-c3ccccc3Cl)c2)C1=O` (stereo unspecified): the Ratio in series [17] stood at 15600 min⁻¹ M⁻¹.

The values are drawn from ChEMBL document CHEMBL5506043, “A β-Carboline Derivate PAD4 Inhibitor Reshapes Neutrophil Phenotype and Improves the Tumor Immune Microenvironment against Triple-Negative Breast Cancer” (J Med Chem, 2024).
